Measurements reported in patent publication US20240239801A1, “PYRIMIDO[5,4,D]PYRIMIDINE COMPOUNDS, COMPOSITIONS COMPRISING THEM AND USES THEREOF” (Université de Montréal, priority 2021, published 2024).
Like-named read-outs stand apart in the source and are kept apart here.

Columns and labels:
ARAF = molecular target: T1, ARAF (Homo sapiens, UniProt P10398); assay: ARAF kinase activity assay (AlphaLISA p-MEK detection); type: biochemical; conditions: Table A
T1 sequence (P10398 310-570 limits assumed): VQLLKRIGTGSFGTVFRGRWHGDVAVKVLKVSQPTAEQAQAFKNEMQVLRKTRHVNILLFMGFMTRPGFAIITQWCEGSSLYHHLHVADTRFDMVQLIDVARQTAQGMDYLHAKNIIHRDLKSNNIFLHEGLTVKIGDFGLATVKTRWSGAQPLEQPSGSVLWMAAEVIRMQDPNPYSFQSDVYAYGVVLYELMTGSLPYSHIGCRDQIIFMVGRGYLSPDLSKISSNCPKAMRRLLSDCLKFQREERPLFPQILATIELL
Procedure: (§1) Compound preparation: solid samples of each substances in 1dram vials were suspended in DMSO (Fisher Scientific) at a stock concentration of 20 mM. Stocks were kept at −20° C. and protected from light. If solubility of the compound at 20 mM appeared to be an issue, the initial concentration of the DMSO stock was changed to 10 mM or 5 mM.
(§2) In vitro enzymatic reactions were used for evaluating compounds intrinsic activity against BRAF, CRAF and ARAF. For BRAF and CRAF, 0.375 nM of purified GST-tagged kinases (cat #B4062-10UG and cat #R1656-10UG respectively from Millipore Sigma) were incubated with 75 nM of kinase-dead MEK1 substrate (cat #40075; BPS Bioscience) in the presence of 10 μM of Ultrapure ATP (cat #V9102; Promega; part V915A) with and without the test compound in a buffer containing 50 mM HEPES pH 7.5, 10 mM MgCl2, 1 mM EDTA, 0.01% Brij-35 and 2 mM DTT. Separate reactions were performed with the MEK1 substrate and ATP as a blank control. ARAF, kinase reactions were rigorously the same with the exception that kinase concentration was raised to 3.75 nM (cat #1768-0000-1; Reaction Biology).
(§3) For compound treatment, 5 μL/well of test substance solution are placed in a 384-well proxyplate (Perkin Elmer) and mixed with 2× concentrated kinase reactions. The dilution series is selected so that nine concentrations cover a range from 100 nM to 0.01 nM. […] The final concentration of DMSO in the assay is set at 0.05%.
ARAF kinase reactions were carried out for a total of 2 hours at 30° C. and then stopped by addition of EDTA at a final concentration of 40 mM. Reactions were then detected using the AlphaLISA® SureFire® Ultra™ p-MEK ½ (Ser218/222) (PerkinElmer) kit. Reactions were performed with 5 μL of kinase reaction according to the manufacturer's specifications in 384-well proxyplates (Perkin Elmer) followed by overnight incubation of the reactions at room temperature in a humidified chamber. After completion of the detection reactions, the signals were recorded on a Synergy Neo2 plate reader (Biotek) equipped with AlphaLISA® filters. The effect of each compound dilution on the pMEK signal generated by ARAF reactions was expressed in % inhibition and calculated as follows. An internal 100% inhibition control (average of luminescence in kinase reactions comprising kinase dead MEK1 substrate alone) was included in each plate to measure of pMEK background and was subtracted from each data point. The average of DMSO (vehicle) controls (set as 0% inhibition) was also established and used to calculate % inhibition:
(§4) IC50 values were obtained by plotting the kinase inhibition values and fitting the dose-activity curves using a log(agonist) versus response−variable slope (four parameters) function using either GraphPadPrism (V7.0) or Dotmatics Screening Ultra platform. Standards included in the ARAF kinase assay were Belvarafenib (MedChem Express cat #HY-109080; CAS #1446113-23-0), LXH254 (MedChem Express cat #HY-112089; CAS #1800398-38-2) and BGB283 (cat #HY-18957; CAS #1446090-79-4).

BRAF = molecular target: T2, BRAF (Homo sapiens, UniProt P15056); assay: BRAF kinase activity assay (ADP-Glo); type: biochemical
T2 construct: GST; purchased Millipore Sigma B4062-10UG
Procedure: as §1, §2, §3
(§5) BRAF and CRAF kinase reactions were carried out for a total of 2 hours at 30° C. and then stopped by ½ dilution in ADP-Glo Reagent (cat #V9102; Promega; part V912C). Reactions were then incubated for 1 h at room temperature before addition of one volume of Kinase Detection Reagent (cat #V9102; Promega; part V917A). Plates were then equilibrated at room temperature for 30 minutes before detection of luminescence on a Synergy Neo2 plate reader (Biotek). The effect of each compound dilution on BRAF and CRAF kinase activity was expressed as % inhibition and calculated as follows. First, the internal 100% inhibition control (average of luminescence in kinase reactions comprising kinase dead MEK1 substrate alone) was subtracted from each data point. The average of DMSO (vehicle) controls (set as 0% inhibition) was established and used to calculate % inhibition:
as §4

CRAF = CRAF (Homo sapiens, UniProt P04049); assay: CRAF kinase activity assay (ADP-Glo); type: biochemical
Procedure: as §1, §2, §3, §5, §4

HCT116 pERK = assay: Phospho-ERK inhibition, AlphaLISA SureFire Ultra p-ERK 1/2; type: cell-based, human; conditions: for HCT116 (Ymin %): lowest value of the pERK IC50 curve; for HCT116 pERK % Ymin (lowest value of the IC50 curve): value in brackets, Ymin above −20% = minimal or no paradoxical induction
Procedure, shortened: (§6)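 Cells plated in RPMI-1640 with 5% FBS, held overnight, then exposed 1 h to ten-point compound dilutions (top 30 or 10 μM down to 0.33 nM; 0.5% DMSO). Lysates read for p-ERK1/2 (Thr202/Tyr204) by AlphaLISA; % inhibition relative to DMSO after subtracting a 1 μM trametinib background; IC50 from four-parameter fit.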

SW480 pERK = assay: as above; type: cell-based, human; conditions: for IC50: 1 h treatment; for SW480 (Ymin %): lowest value of the pERK IC50 curve
Procedure, shortened: as §6

[1] = test system: RAS-mutant HCT-116 cells pERK/pMEK; assay: Immunoblot analysis of pERK and pMEK; type: cell-based, human; conditions: FIG. 2, 1 h treatment
Procedure: For immunoblotting analysis, 500,000 HCT-116 cells were plated in 1 mL of complete RPMI-1640 growth medium in 24-well flat-bottomed transparent dishes (Costar). Cells were maintained overnight at 37° C. under 5% CO2 before treatment with compounds' dilution series for one hour. Cells were then washed once in PBS and lized in 250 μL of Igepal Lysis Buffer (50 mM Tris-HCl pH 7.5, 150 mM NaCl, 1% Igepal-CA630, 1 mM EDTA, 10% Glycerol) supplemented with Leupeptin, Aprotinin, PMSF, phosphatase inhibitor cocktail (Sigma) and Na3VO4 at 4° C. for 15 minutes with gentle rocking. Cell extracts were then cleared by centrifugation at 20,000 g at 4° C. for 10 minutes. Cleared lysates were then transferred on ice in fresh tubes and then boiled in sample loading buffer (100 mM Tris-HCl pH 6.8, 4% SDS, 0.2% bromophenol blue, 20% glycerol, 200 mM β-mercaptoethanol) for 5 minutes prior to fractionation by SDS-PAGE and transfer to nitrocellulose membranes (PALL). […]

[2] = Table 3, read-out: SW480 PERK IC50

T2 sequence (P15056 whole entry): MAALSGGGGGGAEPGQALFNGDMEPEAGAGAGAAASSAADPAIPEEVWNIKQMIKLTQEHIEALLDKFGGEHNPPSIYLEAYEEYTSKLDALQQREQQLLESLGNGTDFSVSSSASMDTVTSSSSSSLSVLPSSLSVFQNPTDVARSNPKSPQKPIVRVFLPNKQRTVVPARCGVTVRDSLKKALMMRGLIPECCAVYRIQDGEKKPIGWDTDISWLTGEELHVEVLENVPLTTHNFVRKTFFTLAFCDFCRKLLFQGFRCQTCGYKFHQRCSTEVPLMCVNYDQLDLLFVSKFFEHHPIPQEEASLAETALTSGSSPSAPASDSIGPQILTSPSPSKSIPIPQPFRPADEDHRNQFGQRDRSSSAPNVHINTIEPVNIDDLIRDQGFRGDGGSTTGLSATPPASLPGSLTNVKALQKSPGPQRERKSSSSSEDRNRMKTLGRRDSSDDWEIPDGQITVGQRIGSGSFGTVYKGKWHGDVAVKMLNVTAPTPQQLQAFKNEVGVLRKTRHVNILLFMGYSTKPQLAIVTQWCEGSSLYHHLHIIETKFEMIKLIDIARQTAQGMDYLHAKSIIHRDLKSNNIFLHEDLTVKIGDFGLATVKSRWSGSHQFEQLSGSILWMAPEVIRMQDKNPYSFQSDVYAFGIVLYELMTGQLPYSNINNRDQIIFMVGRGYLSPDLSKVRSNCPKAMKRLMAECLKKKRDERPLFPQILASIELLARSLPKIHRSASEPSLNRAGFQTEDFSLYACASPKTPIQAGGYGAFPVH
CRAF, sequence (P04049 whole entry): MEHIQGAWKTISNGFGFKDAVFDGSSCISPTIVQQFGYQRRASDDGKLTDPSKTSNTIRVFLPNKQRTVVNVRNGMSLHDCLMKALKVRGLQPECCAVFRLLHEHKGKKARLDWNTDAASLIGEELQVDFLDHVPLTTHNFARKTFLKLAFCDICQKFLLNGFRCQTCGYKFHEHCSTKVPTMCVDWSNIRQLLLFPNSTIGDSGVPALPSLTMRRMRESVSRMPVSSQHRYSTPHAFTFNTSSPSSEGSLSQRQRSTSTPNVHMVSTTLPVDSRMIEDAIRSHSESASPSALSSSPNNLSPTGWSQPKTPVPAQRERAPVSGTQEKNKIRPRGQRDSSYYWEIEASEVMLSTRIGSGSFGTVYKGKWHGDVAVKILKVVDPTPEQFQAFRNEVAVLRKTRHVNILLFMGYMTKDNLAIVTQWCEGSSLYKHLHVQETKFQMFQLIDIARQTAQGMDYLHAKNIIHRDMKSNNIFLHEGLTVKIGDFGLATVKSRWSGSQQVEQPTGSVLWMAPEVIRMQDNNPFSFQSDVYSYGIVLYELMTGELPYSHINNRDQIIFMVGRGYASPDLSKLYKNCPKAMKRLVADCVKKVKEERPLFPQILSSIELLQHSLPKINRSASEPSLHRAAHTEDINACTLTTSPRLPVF

SMILES | IC50 (BRAF; Table 3) [µM] | IC50 (CRAF; Table 3) [µM] | IC50 (HCT116 pERK; Table 3, 1 h treatment) [µM] | HCT116 (Ymin %) (HCT116 pERK; Table 3) [%] | SW480 (Ymin %) (SW480 pERK; Table 3) [%] | also measured
O=C1CCc2c(Oc3ccc4c(c3)[C@@H]3[C@H](O4)[C@H]3c3nc4ccc(C(F)(F)F)cc4[nH]3)ccnc2N1 [BGB283, reference compound] | – | – | – | – | – | IC50 (ARAF): > 20 nM
COc1ccc(S(=O)(=O)Nc2ccc(F)c(Nc3ncnc4cnc(SC)nc34)c2F)cc1 [Example 1] | – | – | – | – | – | IC50 (BRAF; Table 2): > 0.01 µM; IC50 (CRAF; Table 2): > 0.05 µM; IC50 (HCT116 pERK; Homo sapiens, HCT-116, Table 2, 1 h treatment): 10 to 30 µM; IC50 (SW480 pERK; Homo sapiens, SW480, Table 2, read-out: SW480 PERK IC50 (UM)): 1 to 10 µM; SW480 (Ymin %) (SW480 pERK; Table 2): 6%
COc1ccc(S(=O)(=O)Nc2ccc(F)c(Nc3ncnc4cnc(N5CC[C@H](F)C5)nc34)c2F)c(C)c1 [Example 57] | > 0.01 | > 0.05 | 1 to 10 | −2 | −2 | IC50 (SW480 pERK; [2]): 1 to 10 µM
Cc1ncn(-c2ncc3ncnc(Nc4c(F)ccc(NS(=O)(=O)c5ccc(Cl)cc5Cl)c4F)c3n2)c1C [Example 62] | 0.001 to 0.01 | 0.01 to 0.05 | 1 to 10 | 11 | 2 | IC50 (SW480 pERK; [2]): 0.5 to 1 µM
O=S(=O)(Nc1ccc(F)c(Nc2ncnc3cnc(-n4cnc5ccccc54)nc23)c1F)c1ccc(Cl)cc1Cl [Example 63] | 0.001 to 0.01 | < 0.01 | 1 to 10 | −2 | 1 | IC50 (SW480 pERK; [2]): 1 to 10 µM
O=S(=O)(Nc1ccc(F)c(Nc2ncnc3cnc(-n4cnc5ccccc54)nc23)c1F)c1cccc(Cl)c1Cl [Example 81] | < 0.001 | < 0.01 | – | – | 3 | IC50 (HCT116 pERK; Homo sapiens, HCT-116, Table 3, 1 h treatment): < 0.5 µM; IC50 (SW480 pERK; Homo sapiens, SW480, Table 3, read-out: SW480 PERK IC50): < 0.5 µM
Cc1c(F)cccc1S(=O)(=O)Nc1ccc(F)c(Nc2ncnc3cnc(-n4cnc5c(N)cccc54)nc23)c1F [Example 82] | 0.001 to 0.01 | < 0.01 | < 0.5 | −10 | 3.2 | IC50 (SW480 pERK; [2]): < 0.5 µM
Cc1c(F)cccc1S(=O)(=O)Nc1ccc(F)c(Nc2ncnc3cnc(-n4cnc5ccccc54)nc23)c1F [Example 83] | 0.001 to 0.01 | < 0.01 | < 0.5 | −10 | −2 | IC50 (SW480 pERK; [2]): < 0.5 µM
COc1ccc(S(=O)(=O)Nc2ccc(F)c(Nc3ncnc4c(N)nc(-n5cnc6ccccc65)nc34)c2F)c(C)c1 [Example 88] | – | – | – | – | – | IC50 (BRAF; Table 4): > 0.01 µM; IC50 (CRAF; Table 4): > 0.05 µM; IC50 (HCT116 pERK; Homo sapiens, HCT-116, Table 4, 1 h treatment): 1 to 10 µM; IC50 (SW480 pERK; Homo sapiens, SW480, Table 4, read-out: SW480 PERK IC50): 1 to 10 µM; SW480 (Ymin %) (SW480 pERK; Table 4): 2%
CCC1(O)CCN(c2cccc3c2ncn3-c2ncc3ncnc(Nc4c(F)ccc(NS(=O)(=O)c5ccc(F)c(F)c5C)c4F)c3n2)CC1 [Example 155] | 0.001 to 0.01 | > 0.05 | < 0.5 | −8 | – | –
O=S(=O)(Nc1ccc(F)c(Nc2ncnc3cnc(-n4cnc5ccccc54)nc23)c1F)c1cccc(Cl)c1C(F)(F)F [Example 156] | 0.001 to 0.01 | < 0.01 | 0.5 to 1 | – | – | –
O=S(=O)(Nc1ccc(F)c(Nc2ncnc3cnc(-n4cnc5ccccc54)nc23)c1F)c1scc(Cl)c1Cl [Example 157] | < 0.001 | < 0.01 | < 0.5 | 0 | – | –
CCC1(O)CCN(c2cccc3c2ncn3-c2ncc3ncnc(Nc4c(F)ccc(NS(=O)(=O)c5cccc(Cl)c5C(F)(F)F)c4F)c3n2)CC1 [Example 158] | 0.001 to 0.01 | < 0.01 | < 0.5 | −1 | – | –
O=S(=O)(Nc1cc(F)c(F)c(Nc2ncnc3cnc(-n4cnc5ccccc54)nc23)c1F)c1cccc(Cl)c1Cl [Example 160] | – | – | – | – | – | IC50 (BRAF; BRAF biochemical kinase assay): 0.001 to 0.01 µM; IC50 (CRAF; CRAF biochemical kinase assay): < 0.01 µM; IC50 (HCT116 pERK; HCT116 cells, pERK): < 0.5 µM; HCT116 pERK % Ymin (lowest value of the IC50 curve) (HCT116 pERK; HCT116 cells): −9%
O=S(=O)(Nc1cc(F)c(F)c(Nc2ncnc3cnc(-n4nnc5ccccc54)nc23)c1F)c1cccc(Cl)c1Cl [Example 161] | – | – | – | – | – | IC50 (BRAF; BRAF biochemical kinase assay): 0.001 to 0.01 µM; IC50 (CRAF; CRAF biochemical kinase assay): < 0.01 µM; IC50 (HCT116 pERK; HCT116 cells, pERK): 1 to 10 µM; HCT116 pERK % Ymin (lowest value of the IC50 curve) (HCT116 pERK; HCT116 cells): −2.7%
Cc1ccc(NC(=O)c2ccnc(C(F)(F)F)c2)cc1-c1cc(OCCO)nc(N2CCOCC2)c1 [LXH254, reference compound] | – | – | – | – | – | IC50 (ARAF): > 20 nM
CCCS(=O)(=O)Nc1ccc(F)c(C(=O)c2c[nH]c3ncc(Cl)cc23)c1F [PLX4720, reference compound] | – | – | – | – | – | paradoxical induction of pERK or pMEK signaling (immunoblot) [1]: induces the pathway; YMIN of pERK IC50 dose response curve (HCT116 pERK; FIG. 1, RAS-mutant HCT116 cells): ~−600%
